Laboratory results published in patent US8637509B2, “Azaindazoles” (GlaxoSmithKline LLC, priority 2010, dated 2014).
pIC50: −log10 of the molar value.

Target: T1, EZH2 (Homo sapiens, UniProt Q15910)
T1 construct: GRITS37108
Assay: EZH2 methyltransferase SPA assay (3H-SAM, Hela nucleosomes)
Format: biochemical
Settings: read-out: IC50

T1 sequence (Q15910 whole entry): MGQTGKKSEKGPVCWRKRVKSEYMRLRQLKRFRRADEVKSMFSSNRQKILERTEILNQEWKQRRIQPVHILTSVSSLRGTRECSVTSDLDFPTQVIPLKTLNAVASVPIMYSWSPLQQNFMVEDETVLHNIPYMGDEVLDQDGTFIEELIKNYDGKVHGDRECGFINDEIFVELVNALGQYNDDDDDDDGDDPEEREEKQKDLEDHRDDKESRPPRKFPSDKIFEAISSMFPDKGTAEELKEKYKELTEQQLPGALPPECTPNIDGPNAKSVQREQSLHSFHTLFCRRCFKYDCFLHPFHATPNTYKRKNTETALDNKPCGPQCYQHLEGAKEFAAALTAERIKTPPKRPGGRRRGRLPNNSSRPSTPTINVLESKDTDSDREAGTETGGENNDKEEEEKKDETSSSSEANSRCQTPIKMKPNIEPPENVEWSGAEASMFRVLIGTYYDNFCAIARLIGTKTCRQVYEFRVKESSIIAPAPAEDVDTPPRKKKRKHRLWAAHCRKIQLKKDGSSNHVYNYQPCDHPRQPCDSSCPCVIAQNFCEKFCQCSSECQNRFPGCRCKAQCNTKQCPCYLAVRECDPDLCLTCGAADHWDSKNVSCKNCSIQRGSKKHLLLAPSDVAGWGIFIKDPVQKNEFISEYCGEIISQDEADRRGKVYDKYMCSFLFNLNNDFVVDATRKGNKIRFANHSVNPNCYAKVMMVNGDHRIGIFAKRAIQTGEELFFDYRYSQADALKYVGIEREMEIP
T1 sequence (O75530 whole entry partner): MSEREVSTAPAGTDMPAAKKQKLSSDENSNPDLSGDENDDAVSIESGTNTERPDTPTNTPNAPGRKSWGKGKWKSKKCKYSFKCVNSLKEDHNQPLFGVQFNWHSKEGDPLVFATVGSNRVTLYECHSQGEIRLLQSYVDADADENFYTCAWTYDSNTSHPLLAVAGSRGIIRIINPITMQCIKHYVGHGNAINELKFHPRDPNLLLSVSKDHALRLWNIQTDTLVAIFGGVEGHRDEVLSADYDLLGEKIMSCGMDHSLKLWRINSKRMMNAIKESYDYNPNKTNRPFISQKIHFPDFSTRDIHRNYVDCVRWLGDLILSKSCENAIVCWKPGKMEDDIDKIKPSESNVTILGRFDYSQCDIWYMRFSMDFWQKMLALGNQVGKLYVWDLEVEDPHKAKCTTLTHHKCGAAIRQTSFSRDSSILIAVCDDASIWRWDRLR
T1 sequence (Q15022 whole entry partner): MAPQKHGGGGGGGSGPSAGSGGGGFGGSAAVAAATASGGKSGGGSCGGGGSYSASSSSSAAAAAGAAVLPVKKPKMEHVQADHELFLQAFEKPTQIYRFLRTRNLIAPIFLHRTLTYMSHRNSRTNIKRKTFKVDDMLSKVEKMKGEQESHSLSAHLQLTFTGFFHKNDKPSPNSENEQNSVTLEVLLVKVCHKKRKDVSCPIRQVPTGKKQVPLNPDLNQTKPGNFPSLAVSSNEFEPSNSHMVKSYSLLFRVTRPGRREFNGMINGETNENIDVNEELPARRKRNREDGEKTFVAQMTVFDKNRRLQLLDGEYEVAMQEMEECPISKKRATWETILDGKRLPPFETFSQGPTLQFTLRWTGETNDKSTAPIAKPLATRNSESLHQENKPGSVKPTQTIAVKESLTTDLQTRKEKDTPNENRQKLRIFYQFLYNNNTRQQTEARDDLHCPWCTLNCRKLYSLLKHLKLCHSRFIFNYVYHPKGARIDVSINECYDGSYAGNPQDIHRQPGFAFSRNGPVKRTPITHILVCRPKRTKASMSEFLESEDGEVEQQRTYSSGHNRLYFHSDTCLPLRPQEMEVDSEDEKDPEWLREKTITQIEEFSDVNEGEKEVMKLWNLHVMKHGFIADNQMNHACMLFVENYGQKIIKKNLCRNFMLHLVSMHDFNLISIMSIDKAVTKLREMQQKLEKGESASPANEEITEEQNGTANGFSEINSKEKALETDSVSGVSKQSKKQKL

SMILES	pIC50
Cc1cc(C)c(CNC(=O)c2cc(-c3ccncc3)nc3c2c(C)nn3C(C)C)c(=O)[nH]1 [Ex 117, N-[(4,6-Dimethyl-2-oxo-1,2-dihydro-3-pyridinyl)methyl]-3-methyl-1-(1-methylethyl)-6-(4-pyridinyl)-1H-pyrazolo[3,4-b]pyridine-4-carboxamide]	6.72
Cc1cc(C)c(CNC(=O)c2cc(-c3ccccc3[N+](=O)[O-])nc3c2cnn3C(C)C)c(=O)[nH]1 [Ex 124, N-[(4,6-Dimethyl-2-oxo-1,2-dihydro-3-pyridinyl)methyl]-1-(1-methylethyl)-6-(2-nitrophenyl)-1H-pyrazolo[3,4-b]pyridine-4-carboxamide]	5.98
COc1cc(-c2cc(C(=O)NCc3c(C)cc(C)[nH]c3=O)c3cnn(C(C)C)c3n2)ccn1 [Ex 59, N-[(4,6-Dimethyl-2-oxo-1,2-dihydro-3-pyridinyl)methyl]-1-(1-methylethyl)-6-[2-(methyloxy)-4-pyridinyl]-1H-pyrazolo[3,4-b]pyridine-4-carboxamide]	6.81
CCCc1cc(C(=O)NCc2c(C)cc(C)[nH]c2=O)c2cnn(C(C)C)c2n1 [Ex 125, N-[(4,6-Dimethyl-2-oxo-1,2-dihydro-3-pyridinyl)methyl]-1-(1-methylethyl)-6-propyl-1H-pyrazolo[3,4-b]pyridine-4-carboxamide]	5.66
Cc1cc(C2CC2)c(CNC(=O)c2cc(-c3ccncc3)nc3c2cnn3C(C)C)c(=O)[nH]1 [Ex 18, N-[(4-Cyclopropyl-6-methyl-2-oxo-1,2-dihydro-3-pyridinyl)methyl]-1-(1-methylethyl)-6-(4-pyridinyl)-1H-pyrazolo[3,4-b]pyridine-4-carboxamide]	7.40
Cc1cc(C2CC2)[nH]c(=O)c1CNC(=O)c1cc(C2CC2)nc2c1cnn2C(C)C [Ex 19, 6-Cyclopropyl-N-[(6-cyclopropyl-4-methyl-2-oxo-1,2-dihydro-3-pyridinyl)methyl]-1-(1-methylethyl)-1H-pyrazolo[3,4-b]pyridine-4-carboxamide]	5.47
Cc1cc(C)c(CNC(=O)c2cc(-c3ccc(N4CCN(C)CC4)nc3)nc3c2c(C)nn3C(C)C)c(=O)[nH]1 [Ex 27, N-[(4,6-Dimethyl-2-oxo-1,2-dihydro-3-pyridinyl)methyl]-3-methyl-1-(1-methylethyl)-6-[6-(4-methyl-1-piperazinyl)-3-pyridinyl]-1H-pyrazolo[3,4-b]pyridine-4-carboxamide]	7.62
Cc1cc(C)c(CNC(=O)c2cc(-c3ccnc(N)c3)nc3c2cnn3C(C)C)c(=O)[nH]1 [Ex 49, 6-(2-Amino-4-pyridinyl)-N-[(4,6-dimethyl-2-oxo-1,2-dihydro-3-pyridinyl)methyl]-1-(1-methylethyl)-1H-pyrazolo[3,4-b]pyridine-4-carboxamide]	6.94
CCCc1cc(C)c(CNC(=O)c2cc(C3CC3)nc3c2cnn3C(C)C)c(=O)[nH]1 [Ex 7, 6-Cyclopropyl-1-(1-methylethyl)-N-[(4-methyl-2-oxo-6-propyl-1,2-dihydro-3-pyridinyl)methyl]-1H-pyrazolo[3,4-b]pyridine-4-carboxamide]	5.89
Cc1cc(C)c(CNC(=O)c2cc(NCCNc3ccccn3)nc3c2cnn3C(C)C)c(=O)[nH]1 [Ex 95, N-[(4,6-Dimethyl-2-oxo-1,2-dihydro-3-pyridinyl)methyl]-1-(1-methylethyl)-6-{[2-(2-pyridinylamino)ethyl]amino}-1H-pyrazolo[3,4-b]pyridine-4-carboxamide]	6.31
Cc1cc(C)c(CNC(=O)c2cc(C(C)C)nc3c2cnn3C(C)C)c(=O)[nH]1 [Ex 37, N-[(4,6-Dimethyl-2-oxo-1,2-dihydro-3-pyridinyl)methyl]-1,6-bis(1-methylethyl)-1H-pyrazolo[3,4-b]pyridine-4-carboxamide]	5.96
Cc1cc(C2CCCCC2)c(CNC(=O)c2cc(C3CC3)nc3c2cnn3C(C)C)c(=O)[nH]1 [Ex 16, N-[(4-Cyclohexyl-6-methyl-2-oxo-1,2-dihydro-3-pyridinyl)methyl]-6-cyclopropyl-1-(1-methylethyl)-1H-pyrazolo[3,4-b]pyridine-4-carboxamide]	6.98
Cc1cc(C)c(CNC(=O)c2cc(-c3ccc4[nH]c(=O)[nH]c4c3)nc3c2c(C)nn3C(C)(C)C)c(=O)[nH]1 [Ex 88, 1-(1,1-Dimethylethyl)-N-[(4,6-dimethyl-2-oxo-1,2-dihydro-3-pyridinyl)methyl]-3-methyl-6-(2-oxo-2,3-dihydro-1H-benzimidazol-5-yl)-1H-pyrazolo[3,4-b]pyridine-4-carboxamide]	7.28
Cc1cc(C)c(CNC(=O)c2cc(NCc3ccncc3)nc3c2cnn3C(C)C)c(=O)[nH]1 [Ex 55, N-[(4,6-Dimethyl-2-oxo-1,2-dihydro-3-pyridinyl)methyl]-1-(1-methylethyl)-6-[(4-pyridinylmethyl)amino]-1H-pyrazolo[3,4-b]pyridine-4-carboxamide]	6.59
Cc1cc(C)c(CNC(=O)c2cc(N3CCNCC3)nc3c2cnn3C(C)C)c(=O)[nH]1 [Ex 28, N-[(4,6-Dimethyl-2-oxo-1,2-dihydro-3-pyridinyl)methyl]-1-(1-methylethyl)-6-(1-piperazinyl)-1H-pyrazolo[3,4-b]pyridine-4-carboxamide]	6.46

The remaining compounds from weak to strong by pIC50, led by results:

pIC50	SMILES
6.17	Cc1cc(C)c(CNC(=O)c2cc(NCc3ccccc3)nc3c2cnn3C(C)C)c(=O)[nH]1 [Ex 35, N-[(4,6-Dimethyl-2-oxo-1,2-dihydro-3-pyridinyl)methyl]-1-(1-methylethyl)-6-[(phenylmethyl)amino]-1H-pyrazolo[3,4-b]pyridine-4-carboxamide]
6.36	Cc1cc(C)c(CNC(=O)c2cc(NC3CCNCC3)nc3c2cnn3C(C)C)c(=O)[nH]1 [Ex 53, N-[(4,6-Dimethyl-2-oxo-1,2-dihydro-3-pyridinyl)methyl]-1-(1-methylethyl)-6-(4-piperidinylamino)-1H-pyrazolo[3,4-b]pyridine-4-carboxamide]
6.41	Cc1cc(C)c(CNC(=O)c2cc(-c3ccccc3)nc3c2cnn3C(C)C)c(=O)[nH]1 [Ex 38, N-[(4,6-Dimethyl-2-oxo-1,2-dihydro-3-pyridinyl)methyl]-1-(1-methylethyl)-6-phenyl-1H-pyrazolo[3,4-b]pyridine-4-carboxamide]
6.44	Cc1cc(C)c(CNC(=O)c2cc(C3CC3)nc3c2c(C)nn3C2CCN(C)CC2)c(=O)[nH]1 [Ex 111, 6-Cyclopropyl-N-[(4,6-dimethyl-2-oxo-1,2-dihydro-3-pyridinyl)methyl]-3-methyl-1-(1-methyl-4-piperidinyl)-1H-pyrazolo[3,4-b]pyridine-4-carboxamide]
6.48	Cc1cc(C)c(CNC(=O)c2cc(-c3ccc(S(C)(=O)=O)cc3)nc3c2cnn3C(C)C)c(=O)[nH]1 [Ex 119, N-[(4,6-Dimethyl-2-oxo-1,2-dihydro-3-pyridinyl)methyl]-1-(1-methylethyl)-6-[4-(methylsulfonyl)phenyl]-1H-pyrazolo[3,4-b]pyridine-4-carboxamide]
6.81	Cc1cc(C)c(CNC(=O)c2cc(-c3ccc4[nH]nc(C)c4c3)nc3c2cnn3C(C)C)c(=O)[nH]1 [Ex 30, N-[(4,6-Dimethyl-2-oxo-1,2-dihydro-3-pyridinyl)methyl]-1-(1-methylethyl)-6-(3-methyl-1H-indazol-5-yl)-1H-pyrazolo[3,4-b]pyridine-4-carboxamide]
6.89	CNC(=O)c1ccc(-c2cc(C(=O)NCc3c(C)cc(C)[nH]c3=O)c3cnn(C(C)C)c3n2)cc1 [Ex 46, N-[(4,6-Dimethyl-2-oxo-1,2-dihydro-3-pyridinyl)methyl]-6-{4-[(methylamino)carbonyl]phenyl}-1-(1-methylethyl)-1H-pyrazolo[3,4-b]pyridine-4-carboxamide]
6.92	Cc1cc(C)c(CNC(=O)c2cc(C3CC3)nc3c2c(C)nn3C2CCCC2)c(=O)[nH]1 [Ex 106, 1-Cyclopentyl-6-cyclopropyl-N-[(4,6-dimethyl-2-oxo-1,2-dihydro-3-pyridinyl)methyl]-3-methyl-1H-pyrazolo[3,4-b]pyridine-4-carboxamide]
7.06	CC(=O)Nc1cccc(-c2cc(C(=O)NCc3c(C)cc(C)[nH]c3=O)c3cnn(C(C)C)c3n2)c1 [Ex 47, 6-[3-(Acetylamino)phenyl]-N-[(4,6-dimethyl-2-oxo-1,2-dihydro-3-pyridinyl)methyl]-1-(1-methylethyl)-1H-pyrazolo[3,4-b]pyridine-4-carboxamide]
7.09	Cc1cc(C)c(CNC(=O)c2cc(-c3ccnc(N4CCOCC4)c3)nc3c2cnn3C(C)C)c(=O)[nH]1 [Ex 66, N-[(4,6-Dimethyl-2-oxo-1,2-dihydro-3-pyridinyl)methyl]-1-(1-methylethyl)-6-[2-(4-morpholinyl)-4-pyridinyl]-1H-pyrazolo[3,4-b]pyridine-4-carboxamide]
7.12	CNS(=O)(=O)c1ccc(-c2cc(C(=O)NCc3c(C)cc(C)[nH]c3=O)c3c(C)nn(C(C)C)c3n2)cc1 [Ex 92, N-[(4,6-Dimethyl-2-oxo-1,2-dihydro-3-pyridinyl)methyl]-3-methyl-6-{4-[(methylamino)sulfonyl]phenyl}-1-(1-methylethyl)-1H-pyrazolo[3,4-b]pyridine-4-carboxamide]
7.12	Cc1cc(C)c(CNC(=O)c2cc(C3CC3)nc3c2c(C)nn3C(C)(C)C)c(=O)[nH]1 [Ex 107, 6-Cyclopropyl-1-(1,1-dimethylethyl)-N-[(4,6-dimethyl-2-oxo-1,2-dihydro-3-pyridinyl)methyl]-3-methyl-1H-pyrazolo[3,4-b]pyridine-4-carboxamide]
7.15	Cc1cc(C)c(CNC(=O)c2cc(C#Cc3ccncc3)nc3c2cnn3C(C)C)c(=O)[nH]1 [Ex 33, N-[(4,6-Dimethyl-2-oxo-1,2-dihydro-3-pyridinyl)methyl]-1-(1-methylethyl)-6-(4-pyridinylethynyl)-1H-pyrazolo[3,4-b]pyridine-4-carboxamide]
7.37	Cc1cc(C)c(CNC(=O)c2cc(-c3ccc(N4CCOCC4)nc3)nc3c2c(C)nn3C(C)C)c(=O)[nH]1 [Ex 83, N-[(4,6-Dimethyl-2-oxo-1,2-dihydro-3-pyridinyl)methyl]-3-methyl-1-(1-methylethyl)-6-[6-(4-morpholinyl)-3-pyridinyl]-1H-pyrazolo[3,4-b]pyridine-4-carboxamide]
